The values below come from patent US10206937B2, “Boronic acid derivatives and therapeutic uses thereof” (Qpex Biopharma, Inc., priority 2014, dated 2019).

In experiment [1] the target is T1, NDM-1 (Klebsiella pneumoniae, UniProt C7C422). The experiment is described as follows: biochemical. As to conditions: cleavage of imipenem (100 uM) by NDM-1; read-out: Ki, Imipenem.
The target of a further experiment is T2, VIM-1 (Pseudomonas aeruginosa, UniProt A0A0F7KYQ8).
T2 construct: made in house; host or cells: ECM6711 strain carrying pUCP24-VIM-1 plasmid; culture supernatant used unpurified
In words: biochemical. The following applies: cleavage of nitrocefin (200 uM) by VIM-1 supernatant.

The target of experiment [2] is T1, NDM-1. In words: Inhibition of purified class B carbapenemase NDM-1 (Ki, imipenem substrate). In kind it is biochemical. As to conditions: NDM-1, substrate imipenem; read-out: Ki NDM-1, Imipenem.
In experiment [3] the target is purified class A, C and D enzymes (Enterobacter cloacae, UniProt P05364). In kind it is biochemical. As to conditions: purified P99/AmpC of ECL; nitrocefin reporter substrate.
Chain of purified class A, C and D enzymes (Enterobacter cloacae, UniProt P05364) (P05364 21-381): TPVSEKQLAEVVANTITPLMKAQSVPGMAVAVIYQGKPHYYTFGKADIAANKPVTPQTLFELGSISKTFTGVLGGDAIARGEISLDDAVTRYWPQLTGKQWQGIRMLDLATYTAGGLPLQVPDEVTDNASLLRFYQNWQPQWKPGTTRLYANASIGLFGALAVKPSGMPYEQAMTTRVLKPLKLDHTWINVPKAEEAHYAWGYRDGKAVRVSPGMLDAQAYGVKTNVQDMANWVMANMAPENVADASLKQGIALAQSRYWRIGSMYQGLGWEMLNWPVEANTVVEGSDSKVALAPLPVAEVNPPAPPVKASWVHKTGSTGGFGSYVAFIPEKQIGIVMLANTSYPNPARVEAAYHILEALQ
In experiment [4] the target is purified class A, C and D enzymes (Escherichia coli, UniProt Q9L5C7). In kind it is biochemical. The following applies: purified CTX-M-14; nitrocefin reporter substrate.
Chain of purified class A, C and D enzymes (Escherichia coli, UniProt Q9L5C7) (Q9L5C7 entry or part of it): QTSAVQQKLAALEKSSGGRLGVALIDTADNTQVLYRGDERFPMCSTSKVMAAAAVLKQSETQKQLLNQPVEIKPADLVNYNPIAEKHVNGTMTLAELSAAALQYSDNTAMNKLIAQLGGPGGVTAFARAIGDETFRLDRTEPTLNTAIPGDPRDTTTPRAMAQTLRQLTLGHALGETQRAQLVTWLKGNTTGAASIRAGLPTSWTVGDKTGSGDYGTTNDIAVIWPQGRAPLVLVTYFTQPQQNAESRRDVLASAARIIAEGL
Experiment [5] addresses T3, purified class A, C and D enzymes (UniProt P0AD64, L31Q/G234S/E235K, species not given).
T3 construct: Ki (SHV-12, NCF); other: purified SHV-12; nitrocefin reporter substrate
T3 sequence (P0AD64 1-286 L31Q/G234S/E235K): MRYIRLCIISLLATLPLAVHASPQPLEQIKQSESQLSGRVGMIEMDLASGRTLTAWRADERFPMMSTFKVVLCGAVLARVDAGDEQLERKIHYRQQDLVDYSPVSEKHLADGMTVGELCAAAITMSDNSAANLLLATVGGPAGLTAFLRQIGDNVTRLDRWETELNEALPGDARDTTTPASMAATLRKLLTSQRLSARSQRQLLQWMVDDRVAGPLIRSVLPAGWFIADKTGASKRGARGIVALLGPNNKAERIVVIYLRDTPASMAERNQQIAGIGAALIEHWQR
Type of experiment: biochemical. As to conditions: read-out: Ki (SHV-12, NCF); purified SHV-12; nitrocefin reporter substrate.

Experiment [6] addresses T4, purified class A, C and D enzymes (UniProt Q6XEC0).
T4 construct: rows headed: Ki (OXA-48, NCF); other: purified OXA-48; nitrocefin reporter substrate
Type of experiment: biochemical. As to conditions: read-out: Ki (OXA-48, NCF); purified OXA-48; nitrocefin reporter substrate.

The target of experiment [7] is T5, purified class A, C and D enzymes (UniProt Q9F663).
T5 construct: rows headed: Ki (KPC-2, NCF); other: purified KPC-2; nitrocefin reporter substrate
In kind it is biochemical. As to conditions: read-out: Ki (KPC-2, NCF); purified KPC-2; nitrocefin reporter substrate.

T1 sequence (C7C422 29-270, looked up, species assumed): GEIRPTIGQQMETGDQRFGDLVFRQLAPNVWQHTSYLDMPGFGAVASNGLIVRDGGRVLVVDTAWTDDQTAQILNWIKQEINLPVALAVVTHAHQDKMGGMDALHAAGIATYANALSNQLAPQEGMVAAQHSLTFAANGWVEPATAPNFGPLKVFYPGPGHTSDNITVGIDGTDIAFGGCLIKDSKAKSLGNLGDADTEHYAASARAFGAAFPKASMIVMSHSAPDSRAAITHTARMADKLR

In the case of `COc1ccc2c(c1C(=O)O)OB(O)[C@@H](Sc1nncn1CCCC(=O)O)C2` [Compound 41, (R)-3-(4-(3-carboxypropyl)-4H-1,2,4-triazol-3-ylthio)-2-hydroxy-7-methoxy-3,4-dihydro-2H-benzo[e][1,2]oxaborinine-8-carboxylic acid], the Ki (commonly the equilibrium dissociation constant of an inhibitor or competing ligand from its target) on NDM-1 [1] was less than 10 nM; on NDM-1 [2], less than 10 nM; in experiment [5], less than 100 nM; in experiment [6], less than 100 nM; in experiment [7], less than 100 nM. In addition, the 50% inhibitory concentration (IC50) – broadly, the midpoint of a concentration-inhibition curve – against VIM-1 is less than 1000 nM. For the same compound, in experiment [3], the “Ki (P99/AmpC of ECL, NCF)” value was “X (Less than 0.1 μM)”. In addition, the “Ki (CTX-M-14, NCF)” value in experiment [4] is “X (Less than 0.1 μM)”.
Regarding `COc1c(Cl)cc2c(c1C(=O)O)OB(O)[C@@H](Sc1nnc(N)s1)C2` [Compound 42, (R)-3-(5-amino-1,3,4-thiadiazol-2-ylthio)-6-chloro-2-hydroxy-7-methoxy-3,4-dihydro-2H-benzo[e][1,2]oxaborinine-8-carboxylic acid], the Ki at NDM-1 [1] is less than 10 nM; on NDM-1 [2] it was less than 10 nM; in experiment [5] it was less than 100 nM; in experiment [6] it was less than 100 nM; in experiment [7], 100 to 1000 nM. Also, on VIM-1, the concentration for half-maximal inhibition (IC50) was less than 1000 nM. Besides, the “Ki (P99/AmpC of ECL, NCF)” value in experiment [3] was “Y (0.1 μM to 1 μM)”. In addition, the “Ki (CTX-M-14, NCF)” value in experiment [4] is given as “X (Less than 0.1 μM)”.
Regarding `COc1ccc2c(c1C(=O)O)OB(O)[C@@H](SCCc1nnc(N)s1)C2` [Compound 43, (R)-3-(2-(5-amino-1,3,4-thiadiazol-2-yl)ethylthio)-2-hydroxy-7-methoxy-3,4-dihydro-2H-benzo[e][1,2]oxaborinine-8-carboxylic acid], the Ki is less than 10 nM at NDM-1 [1]; less than 10 nM on NDM-1 [2]; less than 100 nM in experiment [5]; less than 100 nM in experiment [6]; less than 100 nM in experiment [7]. Moreover, the IC50 against VIM-1 is less than 1000 nM. Besides, the “Ki (P99/AmpC of ECL, NCF)” value in experiment [3] is recorded as “X (Less than 0.1 μM)”. The “Ki (CTX-M-14, NCF)” value in experiment [4] is on record as “X (Less than 0.1 μM)”.
For `Nc1nnc(S[C@H]2Cc3ccc(O)c(C(=O)O)c3OB2O)s1` [Compound 44, (R)-3-(5-amino-1,3,4-thiadiazol-2-ylthio)-2,7-dihydroxy-3,4-dihydro-2H-benzo[e][1,2]oxaborinine-8-carboxylic acid], the Ki at NDM-1 [1] is less than 10 nM; on NDM-1 [2] it was less than 10 nM; in experiment [5] it was less than 100 nM; in experiment [6], less than 100 nM; in experiment [7], less than 100 nM. The compound further had an IC50 against VIM-1 of less than 1000 nM. Moreover, the “Ki (P99/AmpC of ECL, NCF)” value in experiment [3] is “X (Less than 0.1 μM)”. Besides, the “Ki (CTX-M-14, NCF)” value in experiment [4] was “X (Less than 0.1 μM)”.
Regarding `O=C(O)c1c(F)ccc2c1OB(O)[C@@H](Sc1nccs1)C2` [Compound 45, (R)-7-fluoro-2-hydroxy-3-(thiazol-2-ylthio)-3,4-dihydro-2H-benzo[e][1,2]oxaborinine-8-carboxylic acid], the Ki is 10 to 100 nM at NDM-1 [1]; 10 to 100 nM on NDM-1 [2]; less than 100 nM in experiment [5]; less than 100 nM in experiment [6]; 100 to 1000 nM in experiment [7]. At VIM-1, this compound registered an IC50 not below 1000 nM. Besides, the “Ki (P99/AmpC of ECL, NCF)” value in experiment [3] is reported as “Z (Greater than 1 μM)”. Further, the “Ki (CTX-M-14, NCF)” value in experiment [4] is “X (Less than 0.1 μM)”.
As for `O=C(O)c1c(F)ccc2c1OB(O)[C@@H](SC1CNC1)C2` [Compound 46, (R)-3-(azetidin-3-ylthio)-7-fluoro-2-hydroxy-3,4-dihydro-2H-benzo[e][1,2]oxaborinine-8-carboxylic acid], the Ki on NDM-1 [1] is more than 100 nM; on NDM-1 [2], more than 100 nM; in experiment [5], less than 100 nM; in experiment [6], less than 100 nM; in experiment [7], 100 to 1000 nM. For the same compound, the IC50 at VIM-1 was not below 1000 nM. In experiment [3], the “Ki (P99/AmpC of ECL, NCF)” value was “Z (Greater than 1 μM)”. Besides, the “Ki (CTX-M-14, NCF)” value in experiment [4] was “X (Less than 0.1 μM)”.
With `COc1ccc2c(c1C(=O)O)OB(O)[C@@H](Sc1nccs1)C2` [Compound 47, (R)-2-hydroxy-7-methoxy-3-(thiazol-2-ylthio)-3,4-dihydro-2H-benzo[e][1,2]oxaborinine-8-carboxylic acid], the Ki is more than 100 nM on NDM-1 [1]; 10 to 100 nM at NDM-1 [2]; less than 100 nM in experiment [5]; less than 100 nM in experiment [6]; 100 to 1000 nM in experiment [7]. This compound yielded an IC50 at VIM-1 of less than 1000 nM. Moreover, the “Ki (P99/AmpC of ECL, NCF)” value in experiment [3] is on record as “Y (0.1 μM to 1 μM)”. For the same compound, the “Ki (CTX-M-14, NCF)” value in experiment [4] is listed as “X (Less than 0.1 μM)”.
As to `O=C(O)c1c(F)ccc2c1OB(O)[C@@H](Sc1cnns1)C2` [Compound 48, (3R)-7-fluoro-2-hydroxy-3-(thiadiazol-5-ylsulfanyl)-3,4-dihydro-1,2-benzoxaborinine-8-carboxylic acid], the Ki on NDM-1 [1] is more than 100 nM; on NDM-1 [2], more than 100 nM; in experiment [5], less than 100 nM; in experiment [6], less than 100 nM; in experiment [7], 100 to 1000 nM. The IC50 against VIM-1 is not below 1000 nM. Besides, the “Ki (P99/AmpC of ECL, NCF)” value in experiment [3] is recorded as “Z (Greater than 1 μM)”. Also, the “Ki (CTX-M-14, NCF)” value in experiment [4] was “X (Less than 0.1 μM)”.
Turning to `NC(=O)CS[C@H]1Cc2ccc(F)c(C(=O)O)c2OB1O` [Compound 49, (3R)-3-(2-amino-2-oxo-ethyl)sulfanyl-7-fluoro-2-hydroxy-3,4-dihydro-1,2-benzoxaborinine-8-carboxylic acid], the Ki on NDM-1 [1] was more than 100 nM; on NDM-1 [2] it was more than 100 nM; in experiment [5] it was less than 100 nM; in experiment [6] it was less than 100 nM; in experiment [7], less than 100 nM. The IC50 at VIM-1 was not below 1000 nM. Also, the “Ki (P99/AmpC of ECL, NCF)” value in experiment [3] is listed as “Y (0.1 μM to 1 μM)”. For the same compound, in experiment [4], the “Ki (CTX-M-14, NCF)” value was “X (Less than 0.1 μM)”.
Regarding `Nc1nnc(CCS[C@H]2Cc3ccc(F)c(C(=O)O)c3OB2O)s1` [Compound 50, (3R)-3-[2-(5-amino-1,3,4-thiadiazol-2-yl)ethylsulfanyl]-7-fluoro-2-hydroxy-3,4-dihydro-1,2-benzoxaborinine-8-carboxylic acid], the Ki is more than 100 nM on NDM-1 [1]; more than 100 nM at NDM-1 [2]; less than 100 nM in experiment [5]; less than 100 nM in experiment [6]; less than 100 nM in experiment [7]. Moreover, the IC50 against VIM-1 was less than 1000 nM. For the same compound, the “Ki (P99/AmpC of ECL, NCF)” value in experiment [3] was “X (Less than 0.1 μM)”. For the same compound, in experiment [4], the “Ki (CTX-M-14, NCF)” value is “X (Less than 0.1 μM)”.
In the case of `N#CCS[C@H]1Cc2ccc(F)c(C(=O)O)c2OB1O` [Compound 51, (3R)-3-(cyanomethylsulfanyl)-7-fluoro-2-hydroxy-3,4-dihydro-1,2-benzoxaborinine-8-carboxylic acid], the Ki at NDM-1 [1] is more than 100 nM; at NDM-1 [2], more than 100 nM; in experiment [5], less than 100 nM; in experiment [6] it was less than 100 nM; in experiment [7] it was less than 100 nM. The compound further registered a concentration for half-maximal inhibition (IC50) on VIM-1 not below 1000 nM. Further, the “Ki (P99/AmpC of ECL, NCF)” value in experiment [3] is on record as “Z (Greater than 1 μM)”. Also, the “Ki (CTX-M-14, NCF)” value in experiment [4] is reported as “X (Less than 0.1 μM)”.
As for `Nc1ncc(S[C@H]2Cc3ccc(F)c(C(=O)O)c3OB2O)s1` [Compound 52, (3R)-3-(2-aminothiazol-5-yl)sulfanyl-7-fluoro-2-hydroxy-3,4-dihydro-1,2-benzoxaborinine-8-carboxylic acid], the Ki at NDM-1 [1] was more than 100 nM; on NDM-1 [2], more than 100 nM; in experiment [5] it was less than 100 nM; in experiment [6], less than 100 nM; in experiment [7] it was less than 100 nM. This compound gave an IC50 against VIM-1 of less than 1000 nM. In experiment [3], the “Ki (P99/AmpC of ECL, NCF)” value is on record as “Y (0.1 μM to 1 μM)”. Moreover, the “Ki (CTX-M-14, NCF)” value in experiment [4] was “X (Less than 0.1 μM)”.
Turning to `NC(=O)c1cnc(S[C@H]2Cc3ccc(F)c(C(=O)O)c3OB2O)s1` [Compound 53, (3R)-3-(5-carbamoylthiazol-2-yl)sulfanyl-7-fluoro-2-hydroxy-3,4-dihydro-1,2-benzoxaborinine-8-carboxylic acid], the Ki on NDM-1 [1] was more than 100 nM; on NDM-1 [2], more than 100 nM; in experiment [5], less than 100 nM; in experiment [6] it was less than 100 nM; in experiment [7] it was less than 100 nM. For the same compound, the IC50 on VIM-1 was less than 1000 nM. In experiment [3], the “Ki (P99/AmpC of ECL, NCF)” value is “Y (0.1 μM to 1 μM)”. The “Ki (CTX-M-14, NCF)” value in experiment [4] is “X (Less than 0.1 μM)”.
Regarding `NC(=O)c1csc(S[C@H]2Cc3ccc(F)c(C(=O)O)c3OB2O)n1` [Compound 54, (3R)-3-(4-carbamoylthiazol-2-yl)sulfanyl-7-fluoro-2-hydroxy-3,4-dihydro-1,2-benzoxaborinine-8-carboxylic acid], the Ki on NDM-1 [1] is more than 100 nM; on NDM-1 [2], more than 100 nM; in experiment [5], less than 100 nM; in experiment [6], less than 100 nM; in experiment [7], less than 100 nM. This compound also came in with an IC50 against VIM-1 of less than 1000 nM. The “Ki (P99/AmpC of ECL, NCF)” value in experiment [3] was “Y (0.1 μM to 1 μM)”. Further, in experiment [4], the “Ki (CTX-M-14, NCF)” value is given as “X (Less than 0.1 μM)”.
